Test results: ChEMBL document CHEMBL5584252, “Stereochemical inversion at a 1,4-cyclohexyl PROTAC linker fine-tunes conformation and binding affinity” (Bioorg Med Chem Lett, 2024)

What was measured:
[1] = molecular target: T1, Von Hippel-Lindau disease tumor suppressor/Elongin B/Elongin C (Homo sapiens, UniProt P40337); assay: Displacement of JC-9 probe from recombinant VHL/Elongin C/Elogin B (unknown origin) using FAM-DEALA-Hyp-YIPMDDDFQLRSF as substrate assessed as dissociation constant by competitive fluorescence polarization assay; assay type: protein-complex assay
T1 sequence (P40337 whole entry, looked up, the tested form may be a part): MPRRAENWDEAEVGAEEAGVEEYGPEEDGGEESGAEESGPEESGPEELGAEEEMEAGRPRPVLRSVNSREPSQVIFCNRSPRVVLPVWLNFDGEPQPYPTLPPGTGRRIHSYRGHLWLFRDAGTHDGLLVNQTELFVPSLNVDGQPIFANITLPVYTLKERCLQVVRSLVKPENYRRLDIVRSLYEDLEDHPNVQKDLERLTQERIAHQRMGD

HEK293 = assay: Binding affinity to C-terminal NanoLuc fused human LRRK2/VHL-elongin-B-elongin C (unknown origin) complex expressed in HEK293 cells assessed as ternary complex formation by measuring cooperativity factor by NanoBRET based assay; assay type: cell-based
[2] = molecular target: T1, Von Hippel-Lindau disease tumor suppressor/Elongin B/Elongin C; assay: Binding affinity to VHL/Elongin C/Elogin B (unknown origin) using FAM-DEALA-Hyp-YIPMDDDFQLRSF as substrate assessed as dissociation constant by fluorescence polarization assay; assay type: protein-complex assay
[3] = molecular target: T2, von Hippel-Lindau disease tumor suppressor/Leucine-rich repeat serine/threonine-protein kinase 2 (Mus musculus) (UniProt Q5S006+P40338); assay: PROTAC activity at VHL/wildtype LRRK2 in MEF cells assessed as induction of LRRK2 degradation by measuring half-life at 300 nM incubated for 48 hrs by Western blot analysis; assay type: cell-based
T2 sequence (P40338 whole entry, looked up): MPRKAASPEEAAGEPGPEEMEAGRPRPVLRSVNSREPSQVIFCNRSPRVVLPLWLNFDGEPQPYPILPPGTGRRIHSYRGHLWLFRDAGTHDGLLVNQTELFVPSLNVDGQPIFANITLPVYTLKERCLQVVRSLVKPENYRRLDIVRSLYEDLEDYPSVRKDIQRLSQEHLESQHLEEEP
T2 sequence (Q5S006 whole entry, looked up): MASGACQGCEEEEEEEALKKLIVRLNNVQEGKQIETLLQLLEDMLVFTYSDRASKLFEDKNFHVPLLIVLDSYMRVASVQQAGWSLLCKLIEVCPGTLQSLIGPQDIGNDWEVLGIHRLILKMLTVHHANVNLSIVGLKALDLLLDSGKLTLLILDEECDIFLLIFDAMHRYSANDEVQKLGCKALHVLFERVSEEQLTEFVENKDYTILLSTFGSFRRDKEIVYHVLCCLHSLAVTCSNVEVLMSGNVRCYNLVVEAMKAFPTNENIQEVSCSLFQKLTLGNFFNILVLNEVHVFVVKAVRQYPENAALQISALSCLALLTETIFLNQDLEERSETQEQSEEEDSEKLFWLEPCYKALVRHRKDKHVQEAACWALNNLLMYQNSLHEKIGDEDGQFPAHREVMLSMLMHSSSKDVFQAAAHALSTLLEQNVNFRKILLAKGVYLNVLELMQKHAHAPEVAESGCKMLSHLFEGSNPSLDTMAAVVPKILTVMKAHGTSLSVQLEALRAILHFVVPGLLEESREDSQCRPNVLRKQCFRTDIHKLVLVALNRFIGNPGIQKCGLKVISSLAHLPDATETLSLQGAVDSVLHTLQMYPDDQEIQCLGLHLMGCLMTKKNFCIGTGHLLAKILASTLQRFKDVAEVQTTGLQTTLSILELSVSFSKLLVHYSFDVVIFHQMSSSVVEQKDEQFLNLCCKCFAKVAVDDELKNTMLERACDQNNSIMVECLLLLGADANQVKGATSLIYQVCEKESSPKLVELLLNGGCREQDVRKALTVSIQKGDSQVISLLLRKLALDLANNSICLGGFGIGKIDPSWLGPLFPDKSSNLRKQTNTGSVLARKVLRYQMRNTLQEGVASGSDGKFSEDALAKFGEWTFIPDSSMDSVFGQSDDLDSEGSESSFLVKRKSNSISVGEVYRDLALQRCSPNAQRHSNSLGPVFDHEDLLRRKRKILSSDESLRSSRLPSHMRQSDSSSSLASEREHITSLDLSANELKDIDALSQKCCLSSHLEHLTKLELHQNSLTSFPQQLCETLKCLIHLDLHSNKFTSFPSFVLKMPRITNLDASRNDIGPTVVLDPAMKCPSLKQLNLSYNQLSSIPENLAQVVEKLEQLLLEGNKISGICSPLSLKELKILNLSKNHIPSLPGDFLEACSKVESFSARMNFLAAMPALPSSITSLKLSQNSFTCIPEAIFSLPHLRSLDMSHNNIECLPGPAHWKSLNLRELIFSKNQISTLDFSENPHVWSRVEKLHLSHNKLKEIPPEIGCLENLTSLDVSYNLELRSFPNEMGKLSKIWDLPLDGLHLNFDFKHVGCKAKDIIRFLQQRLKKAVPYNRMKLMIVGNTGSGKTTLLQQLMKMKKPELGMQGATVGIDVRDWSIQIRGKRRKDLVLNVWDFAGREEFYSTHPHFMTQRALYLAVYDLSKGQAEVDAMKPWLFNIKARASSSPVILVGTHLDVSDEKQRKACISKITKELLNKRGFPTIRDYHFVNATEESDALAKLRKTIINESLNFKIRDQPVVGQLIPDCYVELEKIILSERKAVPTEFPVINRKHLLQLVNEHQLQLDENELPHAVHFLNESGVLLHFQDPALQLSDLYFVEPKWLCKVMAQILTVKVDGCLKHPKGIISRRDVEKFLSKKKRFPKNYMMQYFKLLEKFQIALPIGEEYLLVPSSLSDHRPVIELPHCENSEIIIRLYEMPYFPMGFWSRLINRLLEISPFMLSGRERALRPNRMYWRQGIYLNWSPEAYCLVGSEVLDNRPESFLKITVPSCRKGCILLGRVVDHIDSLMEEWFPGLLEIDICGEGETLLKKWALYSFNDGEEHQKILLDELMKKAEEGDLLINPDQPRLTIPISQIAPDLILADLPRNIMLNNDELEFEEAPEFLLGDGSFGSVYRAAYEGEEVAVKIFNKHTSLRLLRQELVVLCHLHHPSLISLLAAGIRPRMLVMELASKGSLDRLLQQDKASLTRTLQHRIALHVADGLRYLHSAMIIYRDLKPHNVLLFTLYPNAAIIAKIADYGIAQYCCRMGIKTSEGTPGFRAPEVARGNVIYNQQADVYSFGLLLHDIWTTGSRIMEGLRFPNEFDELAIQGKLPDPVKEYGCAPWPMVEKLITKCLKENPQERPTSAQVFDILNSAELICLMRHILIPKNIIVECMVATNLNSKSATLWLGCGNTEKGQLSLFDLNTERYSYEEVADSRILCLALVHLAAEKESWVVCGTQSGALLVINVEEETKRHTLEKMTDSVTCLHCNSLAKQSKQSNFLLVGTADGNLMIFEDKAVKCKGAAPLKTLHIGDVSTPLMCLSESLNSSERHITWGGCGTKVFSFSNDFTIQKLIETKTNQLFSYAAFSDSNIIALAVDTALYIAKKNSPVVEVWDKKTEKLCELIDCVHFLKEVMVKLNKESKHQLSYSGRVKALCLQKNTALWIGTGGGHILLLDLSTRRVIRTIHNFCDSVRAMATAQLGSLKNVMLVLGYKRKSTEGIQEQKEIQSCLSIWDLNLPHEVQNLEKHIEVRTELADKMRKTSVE

[4] = molecular target: T2, von Hippel-Lindau disease tumor suppressor/Leucine-rich repeat serine/threonine-protein kinase 2 (Mus musculus); assay: PROTAC activity at VHL/wildtype LRRK2 in MEF cells assessed as induction of LRRK2 degradation by measuring maximal efficacy at 300 nM incubated for 48 hrs by Western blot analysis relative to control; assay type: cell-based
[5] = molecular target: T3, Von Hippel-Lindau disease tumor suppressor/Elongin B/Elongin C (Homo sapiens) (UniProt P40337+Q15370+Q15369); assay: Binding affinity to VHL/Elongin C/Elogin B (unknown origin) assessed as change in enthalpy at 20 uM by ITC analysis; assay type: protein-complex assay
T3 sequence (P40337 whole entry, looked up): as the sequence (P40337 whole entry, looked up, the tested form may be a part) above
T3 sequence (Q15369 whole entry, looked up): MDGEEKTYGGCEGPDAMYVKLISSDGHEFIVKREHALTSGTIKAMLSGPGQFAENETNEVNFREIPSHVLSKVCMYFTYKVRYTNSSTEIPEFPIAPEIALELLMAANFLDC
T3 sequence (Q15370 whole entry, looked up): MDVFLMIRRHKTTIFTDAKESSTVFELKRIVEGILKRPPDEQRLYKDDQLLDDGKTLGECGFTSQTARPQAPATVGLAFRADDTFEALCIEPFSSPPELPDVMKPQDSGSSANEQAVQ

[6] = molecular target: T1, Von Hippel-Lindau disease tumor suppressor/Elongin B/Elongin C; assay: Binding affinity to VHL/Elongin C/Elogin B (unknown origin) assessed as dissociation constant at 20 uM by ITC analysis; assay type: protein-complex assay
[7] = molecular target: T3, Von Hippel-Lindau disease tumor suppressor/Elongin B/Elongin C (Homo sapiens); assay: Binding affinity to VHL/Elongin C/Elogin B (unknown origin) assessed as change in entropy at 20 uM by ITC analysis; assay type: protein-complex assay
[8] = molecular target: T3, Von Hippel-Lindau disease tumor suppressor/Elongin B/Elongin C (Homo sapiens); assay: Binding affinity to VHL/Elongin C/Elogin B (unknown origin) assessed as change in gibbs free energy at 20 uM by ITC analysis; assay type: protein-complex assay
[9] = molecular target: Protein cereblon/Leucine-rich repeat serine/threonine-protein kinase 2 (Homo sapiens, UniProt Q5S007+Q96SW2); assay: PROTAC activity at CRBN/LRRK2 (unknown origin); assay type: protein assay

Compound `CSC(C)(C)[C@H](NC(=O)C1(F)CC1)C(=O)N1C[C@H](O)C[C@H]1C(=O)NCc1ccc(-c2scnc2C)cc1` has a Kd [1] of 406 nM.
In the case of `Cc1ncsc1-c1ccc(CNC(=O)[C@@H]2C[C@@H](O)CN2C(=O)[C@@H](NC(=O)C2(F)CC2)C(C)(C)SC[C@H]2CC[C@H](CN(C)C)CC2)cc1`, the Kd [1] is reported as 514 nM.
With `CNc1nc(Nc2ccc(C(=O)N3CCN(C[C@H]4CC[C@H](CSC(C)(C)[C@H](NC(=O)C5(F)CC5)C(=O)N5C[C@H](O)C[C@H]5C(=O)NCc5ccc(-c6scnc6C)cc5)CC4)CC3)cc2OC)ncc1Cl` the Activity (HEK293) was 5.7, the Kd [2] was over 2330 nM and the T1/2 [3] was 1.2 h. It also gave a Kd [1] of over 820 nM and an Emax [4] of 82%.
Compound `CNc1nc(Nc2ccc(C(=O)N3CCN(C[C@H]4CC[C@@H](CSC(C)(C)[C@H](NC(=O)C5(F)CC5)C(=O)N5C[C@H](O)C[C@H]5C(=O)NCc5ccc(-c6scnc6C)cc5)CC4)CC3)cc2OC)ncc1Cl` has an Activity (HEK293) of 1.4, a Kd [2] of 160 nM and a T1/2 [3] of 2.7 h. It also gave a Kd [1] of 326 nM and an Emax [4] of 59%.
For `Cc1ncsc1-c1ccc(CNC(=O)[C@@H]2C[C@@H](O)CN2C(=O)[C@@H](NC(=O)C2(F)CC2)C(C)(C)SC[C@H]2CC[C@H](CN3CCOCC3)CC2)cc1`, the deltaH [5] was -6.98 kcal/mol, the Kd [6] was 396 nM and the Kd [1] was 540 nM. For the same compound, the TdeltaS [7] was -1.77 kcal/mol and the deltaG [8] was -8.75 kcal/mol.
For `CC1(Oc2ccc3[nH]nc(-c4cc(N5CCN(C[C@H]6CC[C@@H](CN7CCN(c8ccc9c(c8F)CN(C8CCC(=O)NC8=O)C9=O)CC7)CC6)CC5)ncn4)c3c2)CC1` (stereo partly specified), the DC50 [9] was under 10 nM.
Compound `Cc1ncsc1-c1ccc(CNC(=O)[C@@H]2C[C@@H](O)CN2C(=O)[C@@H](NC(=O)C2(F)CC2)C(C)(C)SC[C@H]2CC[C@@H](CN(C)C)CC2)cc1` has a Kd [1] of 313 nM.
Compound `Cc1ncsc1-c1ccc(CNC(=O)[C@@H]2C[C@@H](O)CN2C(=O)[C@@H](NC(=O)C2(F)CC2)C(C)(C)SC[C@H]2CC[C@@H](CN3CCOCC3)CC2)cc1` has a deltaH [5] of -7.96 kcal/mol, a Kd [6] of 165 nM and a Kd [1] of 354 nM. For the same compound, the TdeltaS [7] was -1.31 kcal/mol and the deltaG [8] was -9.25 kcal/mol.
`COc1ccc(C(=O)N2CCN(C[C@H]3CC[C@H](CSC(C)(C)[C@H](NC(=O)C4(F)CC4)C(=O)N4C[C@H](O)C[C@H]4C(=O)NCc4ccc(-c5scnc5C)cc4)CC3)CC2)cc1` gave a Kd [1] of 585 nM.
With `COc1ccc(C(=O)N2CCN(C[C@H]3CC[C@@H](CSC(C)(C)[C@H](NC(=O)C4(F)CC4)C(=O)N4C[C@H](O)C[C@H]4C(=O)NCc4ccc(-c5scnc5C)cc4)CC3)CC2)cc1` the Kd [1] was 260 nM.
